From patent US20240238422A1 (Osprey Biopharmaceuticals, Inc., priority 2021, published 2024)

What was measured:
human CD22 = target: T1, human CD22 (Homo sapiens, UniProt P20273); assay: SPR binding of synthetic Siglec ligands to human CD22 ectodomain (Biacore 8K+); conditions: for Kd: SPR, alkyne-terminating precursors of the PFP linkers, read-out: Human Siglec-2 Binding Affinity; for Human Siglec-2 Binding Affinity: grade in words for the conjugatable Siglec ligand-linker
T1 construct: Fc (human CD22-Fc fusion); purchased R&D Systems AV11968-050
Description: (§1) The following ligands were evaluated for mouse and human CD22 binding: 1) BPC-Neu5Gc PEG (Cpd. No. 26463), 2) BPC-Neu5Gc GAL (Cpd. No. 26339), 3) MPB-Neu5Ac PEG (Cpd. No. 26334), 4) MPB-Neu5Ac GAL (Cpd. No. 26409), 5) Neu5Gc PEG (Cpd. No. 26591). All tested compounds are alkyne-terminating precursors of PFP-terminating, conjugatable Siglec Linker structures used in conjugates in the following examples.
(§2) Binding assays for synthetic CD22 ligand binding to CD22 receptor ectodomain were run on a Biacore 8K+ instrument (Cytiva). Surface preparation for CD22 conjugates binding to human or mouse CD22 protein consisted of two steps, covalent immobilization of streptavidin followed by capture of Avi-tagged and biotinylated human CD22-Fc fusion (R&D Systems, Cat #AV11968-050) and a mono-Fc fusion of mouse CD22. Using standard amine coupling protocols, Streptavidin (Invitrogen, Cat #: 434301) was immobilized to a Cytiva CM5 chip (Cytiva, Cat #BR100530) by injecting at 100 ug/mL in Sodium Acetate, pH 4.5 (Cytiva, Cat #BR100350) on both flow cells, yielding a final response of 2500 RU. Capture of biotinylated mono Fc human CD22 was performed on channels 1-4 and mouse CD22 on channels 5-8 on the active flow cell (2) and the reference flow cell (1) was kept as unmodified streptavidin to account for any non-specific binding. Human CD22 or mouse CD22 (mono-Fc fusion, 5 μg/mL) was injected on the active flow cell (2) for 90 seconds at 5 μL/min, yielding about 210 RU of captured constructs.
(§3) Binding experiments of Siglec-ligand conjugated proteins were performed on the surfaces prepared above in HBS-EP+ (10 mM HEPES, 150 mM NaCl, 3 mM EDTA, 0.05% Tween-20, pH 7.5) as the running buffer. Conjugates were serially diluted 1:1 in running buffer from 1 μM to 31.25 nM and injected over both the reference and active flow cells for 90 seconds at 30 μL/min. The conjugates were then allowed to dissociate from the surface for 300 seconds. No regeneration was required as the conjugates completely dissociated from the surface after 30 seconds.

mouse CD22 = target: T2, mouse CD22 (Mus musculus, UniProt P35329); assay: SPR binding of synthetic Siglec ligands to mouse CD22 ectodomain (Biacore 8K+); conditions: for Kd: SPR, alkyne-terminating precursors of the PFP linkers, read-out: Mouse Siglec-2 Binding Affinity; for Mouse Siglec-2 Binding Affinity: grade in words for the conjugatable Siglec ligand-linker
T2 construct: synthetic Siglec ligands for recombinant human and mouse CD22 ectodomains
T2 sequence (P35329 22-708 limits assumed): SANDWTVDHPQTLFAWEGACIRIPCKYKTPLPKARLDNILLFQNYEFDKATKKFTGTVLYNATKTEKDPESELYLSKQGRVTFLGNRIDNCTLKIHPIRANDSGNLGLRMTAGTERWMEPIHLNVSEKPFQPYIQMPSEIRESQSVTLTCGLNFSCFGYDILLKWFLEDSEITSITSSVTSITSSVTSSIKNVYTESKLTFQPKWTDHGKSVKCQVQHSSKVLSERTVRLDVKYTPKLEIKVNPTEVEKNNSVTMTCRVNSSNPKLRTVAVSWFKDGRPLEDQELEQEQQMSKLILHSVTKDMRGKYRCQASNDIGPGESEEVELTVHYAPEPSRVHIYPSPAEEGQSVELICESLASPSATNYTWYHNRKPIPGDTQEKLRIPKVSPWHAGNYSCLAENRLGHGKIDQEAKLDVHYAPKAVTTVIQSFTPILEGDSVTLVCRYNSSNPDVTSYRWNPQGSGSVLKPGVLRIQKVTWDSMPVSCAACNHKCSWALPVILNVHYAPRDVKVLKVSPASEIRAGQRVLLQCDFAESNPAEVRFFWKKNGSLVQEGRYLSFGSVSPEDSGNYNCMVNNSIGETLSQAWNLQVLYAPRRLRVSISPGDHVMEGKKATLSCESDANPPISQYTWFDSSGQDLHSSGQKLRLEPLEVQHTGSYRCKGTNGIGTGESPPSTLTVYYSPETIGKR
Description: as §1, §2, §3

T1 sequence (P20273 20-687 limits assumed): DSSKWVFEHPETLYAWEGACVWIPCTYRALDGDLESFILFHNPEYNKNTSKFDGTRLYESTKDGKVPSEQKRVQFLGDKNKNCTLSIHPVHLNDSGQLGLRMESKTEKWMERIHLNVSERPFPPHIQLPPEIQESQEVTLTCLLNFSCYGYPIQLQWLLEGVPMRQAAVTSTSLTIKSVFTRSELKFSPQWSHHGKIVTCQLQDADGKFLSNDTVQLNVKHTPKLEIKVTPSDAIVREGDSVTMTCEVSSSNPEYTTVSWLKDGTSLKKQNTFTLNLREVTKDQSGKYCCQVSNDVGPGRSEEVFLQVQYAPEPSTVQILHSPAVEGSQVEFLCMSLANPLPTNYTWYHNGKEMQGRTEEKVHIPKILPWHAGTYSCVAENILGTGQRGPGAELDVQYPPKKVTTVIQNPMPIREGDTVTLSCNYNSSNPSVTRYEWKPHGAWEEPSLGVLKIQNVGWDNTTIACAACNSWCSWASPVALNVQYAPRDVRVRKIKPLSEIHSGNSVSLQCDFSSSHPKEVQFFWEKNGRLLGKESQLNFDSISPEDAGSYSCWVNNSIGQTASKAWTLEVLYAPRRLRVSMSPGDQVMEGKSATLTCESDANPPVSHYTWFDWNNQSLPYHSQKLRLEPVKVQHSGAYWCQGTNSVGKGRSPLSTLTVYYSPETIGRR

Row | SMILES | Kd (human CD22) [nM] | Kd (mouse CD22) [µM] | Human Siglec-2 Binding Affinity (human CD22) | Mouse Siglec-2 Binding Affinity (mouse CD22)
1 | C#CCCO[C@@H]1O[C@H](CO[C@]2(C(=O)O)C[C@H](O)[C@@H](NC(=O)CO)[C@H]([C@H](O)[C@H](O)CNC(=O)Cc3ccc(-c4ccccc4)cc3)O2)[C@H](O)[C@H](O)[C@H]1O | 2500 | 17.2 |  | 
2 | O=C(CCOCCOCCn1cc(CCO[C@@H]2O[C@H](CO[C@]3(C(=O)O)C[C@H](O)[C@@H](NC(=O)CO)[C@H]([C@H](O)[C@H](O)CNC(=O)Cc4ccc(-c5ccccc5)cc4)O3)[C@H](O)[C@H](O)[C@H]2O)nn1)NCCCCC(NC(=O)CCCNC(=O)CCOCCOCCn1cc(CCO[C@@H]2O[C@H](CO[C@]3(C(=O)O)C[C@H](O)[C@@H](NC(=O)CO)[C@H]([C@H](O)[C@H](O)CNC(=O)Cc4ccc(-c5ccccc5)cc4)O3)[C@H](O)[C@H](O)[C@H]2O)nn1)C(=O)NCCOCCOCCOCCOCCC(=O)Oc1c(F)c(F)c(F)c(F)c1F (mixture of isomers) [Cpd. No. 26416] |  |  | Strong | Strong
3 | CC(=O)N[C@H]1[C@H]([C@H](O)[C@H](O)CNC(=O)c2cccc(Oc3ccccc3)c2)O[C@@](OC[C@H]2O[C@@H](OCCc3cn(CCOCCOCCC(=O)NCCCC[C@H](NC(=O)CCCNC(=O)CCOCCOCCn4cc(CCO[C@@H]5O[C@H](CO[C@]6(C(=O)O)C[C@H](O)[C@@H](NC(C)=O)[C@H]([C@H](O)[C@H](O)CNC(=O)c7cccc(Oc8ccccc8)c7)O6)[C@H](O)[C@H](O)[C@H]5O)nn4)C(=O)NCCOCCOCCOCCOCCC(=O)Oc4c(F)c(F)c(F)c(F)c4F)nn3)[C@H](O)[C@@H](O)[C@H]2O)(C(=O)O)C[C@@H]1O (mixture of isomers) [Cpd. No. 26468] |  |  | Strong | V. weak
4 | CC(=O)N[C@H]1[C@H]([C@H](O)[C@H](O)CNC(=O)c2cccc(Oc3ccccc3)c2)O[C@@](OCCOCc2cn(CCOCCOCCC(=O)NCCCC[C@H](NC(=O)CCCNC(=O)CCOCCOCCn3cc(COCCO[C@]4(C(=O)O)C[C@H](O)[C@@H](NC(C)=O)[C@H]([C@H](O)[C@H](O)CNC(=O)c5cccc(Oc6ccccc6)c5)O4)nn3)C(=O)NCCOCCOCCOCCOCCC(=O)Oc3c(F)c(F)c(F)c(F)c3F)nn2)(C(=O)O)C[C@@H]1O [Cpd. No. 26289, (2R,2′R,4S,4′S,5R,5′R,6R,6′R)-2,2′-(((((((S)-9,14,22-trioxo-16-((15-oxo-15-(perfluorophenoxy)-3,6,9,12-tetraoxapentadecyl)carbamoyl)-3,6,25,28-tetraoxa-10,15,21-triazatriacontane-1,30-diyl)bis(1H-1,2,3-triazole-1,4-diyl))bis(methylene))bis(oxy))bis(ethane-2,1-diyl))bis(oxy))bis(5-acetamido-6-((1R,2R)-1,2-dihydroxy-3-(3-phenoxybenzamido)propyl)-4-hydroxytetrahydro-2H-pyran-2-carboxylic acid)] |  |  | Strong | V. weak
5 | C#CCOCCOCCO[C@]1(C(=O)O)C[C@H](O)[C@@H](NC(C)=O)[C@H]([C@H](O)[C@H](O)CNC(=O)c2cccc(Oc3ccccc3)c2)O1 [Cpd. No. 26334, (2R,4S,5R,6R)-5-acetamido-6-((1R,2R)-1,2-dihydroxy-3-(3-phenoxybenzamido)propyl)-4-hydroxy-2-(2-(2-(prop-2-yn-1-yloxy)ethoxy)ethoxy)tetrahydro-2H-pyran-2-carboxylic acid] | 930 | > 100 |  | 
6 | C#CCCO[C@@H]1O[C@H](CO[C@]2(C(=O)O)C[C@H](O)[C@@H](NC(C)=O)[C@H]([C@H](O)[C@H](O)CNC(=O)c3cccc(Oc4ccccc4)c3)O2)[C@H](O)[C@H](O)[C@H]1O [Cpd. No. 26409, (2R,4S,5R,6R)-5-acetamido-2-(((2R,3R,4S,5R,6R)-6-(but-3-yn-1-yloxy)-3,4,5-trihydroxytetrahydro-2H-pyran-2-yl)methoxy)-6-((1R,2R)-1,2-dihydroxy-3-(3-phenoxybenzamido)propyl)-4-hydroxytetrahydro-2H-pyran-2-carboxylic acid] | 1000 | > 100 |  | 

Further lines, results first:

Row | Kd (human CD22) [nM] | Kd (mouse CD22) [µM] | Human Siglec-2 Binding Affinity (human CD22) | Mouse Siglec-2 Binding Affinity (mouse CD22) | SMILES
7 |  |  | Strong | V. weak | CC(=O)N[C@H]1[C@H]([C@H](O)[C@H](O)CNC(=O)c2cccc(Oc3ccccc3)c2)O[C@@](OCCOCCOCc2cn(CCOCCOCCOCCOCCC(=O)Oc3c(F)c(F)c(F)c(F)c3F)nn2)(C(=O)O)C[C@@H]1O [Cpd. No. 24836, (2R,4S,5R,6R)-5-acetamido-6-((1R,2R)-1,2-dihydroxy-3-(3-phenoxybenzamido)propyl)-4-hydroxy-2-(2-(2-((1-(15-oxo-15-(perfluorophenoxy)-3,6,9,12-tetraoxapentadecyl)-1H-1,2,3-triazol-4-yl)methoxy)ethoxy)ethoxy)tetrahydro-2H-pyran-2-carboxylic acid]
8 |  |  | Strong | V. weak | CC(=O)N[C@H]1[C@H]([C@H](O)[C@H](O)CNC(=O)c2cccc(Oc3ccccc3)c2)O[C@@](OC[C@H]2O[C@@H](OCCc3cn(CCOCCOCCOCCOCCC(=O)Oc4c(F)c(F)c(F)c(F)c4F)nn3)[C@H](O)[C@@H](O)[C@H]2O)(C(=O)O)C[C@@H]1O [Cpd. No. 24906, (2R,4S,5R,6R)-5-acetamido-6-((1R,2R)-1,2-dihydroxy-3-(3-phenoxybenzamido)propyl)-4-hydroxy-2-(((2R,3R,4S,5R,6R)-3,4,5-trihydroxy-6-(2-(1-(15-oxo-15-(perfluorophenoxy)-3,6,9,12-tetraoxapentadecyl)-1H-1,2,3-triazol-4-yl)ethoxy)tetrahydro-2H-pyran-2-yl)methoxy)tetrahydro-2H-pyran-2-carboxylic acid]
9 |  |  | Strong | Strong | O=C(Cc1ccc(-c2ccccc2)cc1)NC[C@@H](O)[C@@H](O)[C@@H]1O[C@@](OCCOCCOCc2cn(CCOCCOCCOCCOCCC(=O)Oc3c(F)c(F)c(F)c(F)c3F)nn2)(C(=O)O)C[C@H](O)[C@H]1NC(=O)CO [Cpd. No. 26288, (2R,4S,5R,6R)-6-((1R,2R)-3-(2-([1,1′-biphenyl]-4-yl)acetamido)-1,2-dihydroxypropyl)-4-hydroxy-5-(2-hydroxyacetamido)-2-(2-(2-((1-(15-oxo-15-(perfluorophenoxy)-3,6,9,12-tetraoxapentadecyl)-1H-1,2,3-triazol-4-yl)methoxy)ethoxy)ethoxy)tetrahydro-2H-pyran-2-carboxylic acid]
10 |  |  | Strong | Strong | O=C(Cc1ccc(-c2ccccc2)cc1)NC[C@@H](O)[C@@H](O)[C@@H]1O[C@@](OC[C@H]2O[C@@H](OCCc3cn(CCOCCOCCOCCOCCC(=O)Oc4c(F)c(F)c(F)c(F)c4F)nn3)[C@H](O)[C@@H](O)[C@H]2O)(C(=O)O)C[C@H](O)[C@H]1NC(=O)CO [Cpd. No. 26415, (2R,4S,5R,6R)-6-((1R,2R)-3-(2-([1,1′-biphenyl]-4-yl)acetamido)-1,2-dihydroxypropyl)-4-hydroxy-5-(2-hydroxyacetamido)-2-(((2R,3R,4S,5R,6R)-3,4,5-trihydroxy-6-(2-(1-(15-oxo-15-(perfluorophenoxy)-3,6,9,12-tetraoxapentadecyl)-1H-1,2,3-triazol-4-yl)ethoxy)tetrahydro-2H-pyran-2-yl)methoxy)tetrahydro-2H-pyran-2-carboxylic acid]
